From PubChem BioAssay AID274 (DTP/NCI, 2004) come the findings set out here.

This experiment relates to BDF1 mice, Lewis lung carcinoma iv, survival T/C. Put plainly: NCI In Vivo Anticancer Drug Screen. Data for tumor model Lewis Lung Carcinoma (intravenous) in B6D2F1 (BDF1) mice. The following applies: endpoint: median survival time, higher = longer survival. How it is done:
The antitumor activity of compounds was measured in mice bearing transplantable tumors. Survival or tumor size were measured and the results are expressed as the measurement made in the treated group (T) divided by the measurement made in the vehicle treated control group (C). The tumor model used in this assay is Lewis Lung Carcinoma (intravenous) in B6D2F1 (BDF1) mice

Setting [1] is: dose: 0.25 mg/kg/injection, schedule: Q01DX009 (ip), vehicle: saline.
The mark [2] stands for this setting: dose: 0.5 mg/kg/injection, schedule: Q01DX009 (ip), vehicle: saline.
[3] abbreviates: dose: 1.0 mg/kg/injection, schedule: Q01DX009 (ip), vehicle: saline.
Where [4] appears, read: dose: 2.0 mg/kg/injection, schedule: Q01DX009 (ip), vehicle: saline.
Where [5] appears, read: dose: 4.0 mg/kg/injection, schedule: Q01DX009 (ip), vehicle: saline.
The mark [6] stands for this setting: dose: 12.5 mg/kg/injection, schedule: Q01DX009 (ip), vehicle: saline with Tween-80.
The mark [7] stands for this setting: dose: 25.0 mg/kg/injection, schedule: Q01DX009 (ip), vehicle: saline with Tween-80.
Where [8] appears, read: dose: 50.0 mg/kg/injection, schedule: Q01DX009 (ip), vehicle: saline with Tween-80.
[9] abbreviates: dose: 50.0 mg/kg/injection, schedule: Q01DX009 (ip), vehicle: saline.
Setting [10] is: dose: 100.0 mg/kg/injection, schedule: Q01DX009 (ip), vehicle: saline.
[11] abbreviates: dose: 200.0 mg/kg/injection, schedule: Q01DX009 (ip), vehicle: saline.
[12] abbreviates: dose: 12.5 mg/kg/injection, schedule: Q01DX009 (ip), vehicle: Klucel (hydroxypropylcellulose) (HPC).
[13] abbreviates: dose: 25.0 mg/kg/injection, schedule: Q01DX009 (ip), vehicle: Klucel (hydroxypropylcellulose) (HPC).
The mark [14] stands for this setting: dose: 50.0 mg/kg/injection, schedule: Q01DX009 (ip), vehicle: Klucel (hydroxypropylcellulose) (HPC).
Where [15] appears, read: dose: 100.0 mg/kg/injection, schedule: Q01DX009 (ip), vehicle: Klucel (hydroxypropylcellulose) (HPC).
The mark [16] stands for this setting: dose: 12.5 mg/kg/injection, schedule: Q01DX009 (ip), vehicle: saline.
Setting [17] is: dose: 25.0 mg/kg/injection, schedule: Q01DX009 (ip), vehicle: saline.
The mark [18] stands for this setting: dose: 100.0 mg/kg/injection, schedule: Q01DX009 (ip), vehicle: saline with Tween-80.
[19] abbreviates: dose: 6.25 mg/kg/injection, schedule: Q01DX009 (ip), vehicle: saline with Tween-80.

“And” between values parts separate entries of the source, which are not always exact repeats. Equal entries are not always repeated. Toxic doses and inconclusive results are not listed.

On to `CC(=O)OCC12C3CC(=O)OC1C(OC(=O)C=C(C)C)C1C(C)=CC(=O)C(OC(C)=O)C1(C)C2C(=O)C(OC(C)=O)C3C` (stereo unspecified), for which the T/C is, setting by setting: under setting [1], 86 % of control; under setting [2], 107 % of control; under setting [3], 91 % of control; under setting [4], 102 % of control; under setting [5], 113 % of control.
Take `O=C(NCCCCCCCCCCNC(=O)N1CC1)N1CC1`: the T/C was 117 % of control (dose: 0.75 mg/kg/injection, schedule: Q01DX009 (ip), vehicle: saline); 110 % of control (dose: 1.5 mg/kg/injection, schedule: Q01DX009 (ip), vehicle: saline); 122 % of control (dose: 3.0 mg/kg/injection, schedule: Q01DX009 (ip), vehicle: saline); 117 % of control (dose: 6.0 mg/kg/injection, schedule: Q01DX009 (ip), vehicle: saline).
For the compound `NC(=O)c1[nH]nc(C2OC(CO)C(O)C2O)c1O` (stereo unspecified), the T/C was 98 % of control (dose: 78.13 micrograms/kg/injection, schedule: Q01DX009 (ip), vehicle: water); 118 % of control (dose: 156.25 micrograms/kg/injection, schedule: Q01DX009 (ip), vehicle: water); 87 % of control (dose: 312.5 micrograms/kg/injection, schedule: Q01DX009 (ip), vehicle: water); 122 % of control (dose: 625.0 micrograms/kg/injection, schedule: Q01DX009 (ip), vehicle: water).
For the compound `CCN1C[C@]2(COC)[C@H](O)C[C@H](OC)[C@]34C1[C@H]([C@H](OC)[C@H]23)[C@]1(OC(C)=O)[C@H]2[C@@H](OC(=O)c3ccccc3)[C@](O)(C[C@H]24)[C@@H](OC)[C@@H]1O`, the T/C reads like this: (dose: 0.03 mg/kg/injection, schedule: Q01DX009 (ip), vehicle: Klucel (hydroxypropylcellulose) (HPC)) 108 % of control; (dose: 0.06 mg/kg/injection, schedule: Q01DX009 (ip), vehicle: Klucel (hydroxypropylcellulose) (HPC)) 107 % of control; (dose: 0.13 mg/kg/injection, schedule: Q01DX009 (ip), vehicle: Klucel (hydroxypropylcellulose) (HPC)) 99 % of control.
For the compound `O=C1C(Cl)=C(Cl)C(=O)C2=C1C1c3ccccc3C2c2ccccc21`, the T/C runs as follows: under setting [6], 104 % of control; under setting [7], 103 % of control; under setting [8], 103 % of control.
As for `O[C@H](CN1CC1)[C@@H](O)CN1CC1`, the T/C reads like this: (dose: 0.13 mg/kg/injection, schedule: Q01DX009 (ip), vehicle: saline) 111 % of control; under setting [1], 121 % of control.
`O=C(O)CP(=O)(O)O`: the T/C under setting [9] is 96 % of control, the T/C under setting [10] was 96 % of control and the T/C under setting [11] was 152 % of control.
For `CC1CCC(NC(=O)N(CCCl)N=O)CC1` (stereo unspecified), the T/C reads like this: (dose: 5.0 mg/kg/injection, schedule: Q01DX001 (ip), vehicle: saline) 100 % of control; (dose: 10.0 mg/kg/injection, schedule: Q01DX001 (ip), vehicle: saline) 100 % of control; (dose: 24.0 mg/kg/injection, schedule: Q01DX001 (ip), vehicle: saline with Tween-80) 156 % of control; (dose: 24.0 mg/kg/injection, schedule: Q06DX002 (ip), vehicle: saline with Tween-80) 176 % of control and 270 % of control; (dose: 30.0 mg/kg/injection, schedule: Q01DX001 (ip), vehicle: saline) 94 % of control and 103 % of control; (dose: 30.0 mg/kg/injection, schedule: Q06DX002 (ip), vehicle: saline with Tween-80) 220 % of control and 260 % of control. Besides, the T/C (dose: 36.0 mg/kg/injection, schedule: Q01DX001 (ip), vehicle: saline with Tween-80) was 162 % of control and 185 % of control and 205 % of control; the T/C (dose: 40.0 mg/kg/injection, schedule: Q01DX001 (ip), vehicle: saline) is 103 % of control.
For `Nc1ccccc1N`, the T/C by setting is: under setting [12], 96 % of control; under setting [13], 107 % of control; under setting [14], 101 % of control; under setting [15], 91 % of control.
`COc1ccc2ccccc2c1C1NC(=O)c2ccccc2N1` (stereo unspecified): the T/C reads like this: under setting [12], 90 % of control; under setting [13], 92 % of control; under setting [14], 92 % of control; under setting [15], 96 % of control; (dose: 200.0 mg/kg/injection, schedule: Q01DX009 (ip), vehicle: Klucel (hydroxypropylcellulose) (HPC)) 98 % of control; (dose: 400.0 mg/kg/injection, schedule: Q01DX009 (ip), vehicle: Klucel (hydroxypropylcellulose) (HPC)) 102 % of control.
As to `O=C1C=CC(n2cc(F)c(=O)[nH]c2=O)O1` (stereo unspecified), the T/C by setting is: (dose: 6.25 mg/kg/injection, schedule: Q01DX009 (ip), vehicle: saline) 106 % of control; under setting [16], 96 % of control; under setting [17], 103 % of control; under setting [9], 119 % of control.
For the compound `CCCCCCCCCCCCCCCCCC1=NC(C)CC(C)(C)O1` (stereo unspecified), the T/C by setting is: under setting [8], 106 % of control; under setting [18], 103 % of control; (dose: 200.0 mg/kg/injection, schedule: Q01DX009 (ip), vehicle: saline with Tween-80) 98 % of control.
Regarding `Nc1nc(SCc2ccccc2)c2ncn(C3OC(CO)CC3O)c2n1` (stereo unspecified), under setting [14], the T/C was 109 % of control.
As to `Nc1ncnc2c1ncn2C1C=C(CO)C(O)C1O` (stereo unspecified), the T/C is 102 % of control under setting [2], 98 % of control under setting [3], 88 % of control under setting [4] and 95 % of control under setting [5].
In the case of `Cc1cc(/C=C/c2cc[n+](C)c3ccccc23)c(O)c2ncccc12`, the T/C was 95 % of control under setting [19] and 109 % of control under setting [6].
`CC(=O)O[C@@H]1[C@@H](O)C2=C3[C@]4(C)[C@@H]1C(C)(C)C(=O)C[C@@H]4[C@]3(O)[C@H](OC(C)=O)[C@@]1(C[C@@H]1C)C2=O`: the T/C runs as follows: (dose: 3.12 mg/kg/injection, schedule: Q01DX009 (ip), vehicle: saline with Tween-80) 97 % of control; under setting [19], 195 % of control; under setting [6], 162 % of control.
On to `O=C(Nc1ccc(N=C=S)cc1Cl)c1cc(Cl)cc(Cl)c1O`, for which the T/C by setting is: (dose: 6.25 mg/kg/injection, schedule: Q01DX009 (ip), vehicle: Klucel (hydroxypropylcellulose) (HPC)) 97 % of control; under setting [12], 97 % of control; under setting [13], 105 % of control; under setting [14], 116 % of control.
As for `O=C1CN(CN2CCOCC2)C(=O)CN1CN1CCOCC1`, the T/C under setting [16] is 118 % of control; the T/C under setting [17] is 113 % of control; the T/C under setting [9] was 95 % of control; the T/C under setting [10] was 93 % of control; the T/C under setting [11] was 104 % of control.
Take `CC1(c2ccc(Cl)cc2)OC(=O)C(=Cc2ccc([N+](=O)[O-])s2)C(=O)O1` (stereo unspecified): the T/C reads like this: under setting [6], 100 % of control; under setting [7], 100 % of control; under setting [8], 99 % of control; under setting [18], 98 % of control.
Take `O=C(CCN1CC1)Nc1cccc(NC(=O)CCN2CC2)c1`: the T/C (dose: 2.5 mg/kg/injection, schedule: Q01DX009 (ip), vehicle: saline with Tween-80) is 110 % of control; the T/C (dose: 5.0 mg/kg/injection, schedule: Q01DX009 (ip), vehicle: saline with Tween-80) is 106 % of control; the T/C (dose: 10.0 mg/kg/injection, schedule: Q01DX009 (ip), vehicle: saline with Tween-80) is 123 % of control.
Take `NCCCNCCSP(=O)(O)O`: the T/C is, setting by setting: (dose: 300.0 mg/kg/injection, schedule: Q01DX001 (ip), vehicle: saline) 88 % of control; (dose: 500.0 mg/kg/injection, schedule: Q01DX001 (ip), vehicle: saline) 88 % of control.
For the compound `CC[C@H]1CN2CCc3cc(OC)c(OC)cc3[C@@H]2C[C@@H]1C[C@H]1NCCc2cc(O)c(OC)cc21`, the T/C is 109 % of control under setting [4]; 100 % of control under setting [5]; 116 % of control (dose: 8.0 mg/kg/injection, schedule: Q01DX009 (ip), vehicle: saline); 116 % of control (dose: 16.0 mg/kg/injection, schedule: Q01DX009 (ip), vehicle: saline).
